Assay results as given in US20250059182A1, “SOS1 INHIBITORS” (Mirati Therapeutics, Inc., priority 2021, published 2025).

Tests used:
[1] = target: T1, recombinant human SOS1 polypeptide (amino acids 560-1049) (Homo sapiens, UniProt Q07889); assay: HTRF displacement assay: inhibition of labeled tracer binding to SOS1; settings: Table A, Morrison equation for competitive binding
T1 construct: corresponding to amino acids 560-1049, expressed in E. Coli; made in house; host or cells: E. coli
T1 sequence (Q07889 560-1049): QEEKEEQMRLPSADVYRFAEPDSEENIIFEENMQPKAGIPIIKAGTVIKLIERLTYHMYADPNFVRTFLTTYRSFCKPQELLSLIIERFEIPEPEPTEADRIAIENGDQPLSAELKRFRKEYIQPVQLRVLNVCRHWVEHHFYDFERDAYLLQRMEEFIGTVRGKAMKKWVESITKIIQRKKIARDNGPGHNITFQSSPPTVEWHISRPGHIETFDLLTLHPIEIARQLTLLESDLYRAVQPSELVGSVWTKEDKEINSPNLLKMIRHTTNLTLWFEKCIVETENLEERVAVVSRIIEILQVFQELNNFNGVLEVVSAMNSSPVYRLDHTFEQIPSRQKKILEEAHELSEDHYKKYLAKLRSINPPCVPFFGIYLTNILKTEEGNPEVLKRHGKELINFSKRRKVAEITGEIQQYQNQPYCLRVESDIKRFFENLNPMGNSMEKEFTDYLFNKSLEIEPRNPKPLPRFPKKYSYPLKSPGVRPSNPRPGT

pERK in MKN1 cells = assay: pERK inhibition, In-Cell Western (LI-COR Odyssey), MKN1 cells; assay type: cell-based; settings: Homo sapiens, MKN-1, Table B; MKN1 or H358 cells (table does not say which); 0.5-1 hour incubation; read-out: IC50 (nM), pERK inhibition
Procedure, shortened: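 MKN1 cells were exposed for about 0.5–1 h at 37 °C to nine 3-fold dilutions starting at 10 µM. Cells were then fixed in formaldehyde, permeabilised with methanol, and immunostained for pERK and GAPDH with near-infrared secondary antibodies. GAPDH-normalised pERK signal relative to vehicle gave % inhibition, from which IC50 was fitted.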

Cc1c([C@@H](C)Nc2nnc(C)c3cnc(N(C)[C@H]4CCNC4)cc23)cccc1C(F)(F)F [Example 1-64, N^7,4-dimethyl-N^1-((R)-1-(2-methyl-3-(trifluoromethyl)phenyl)ethyl)-N^7-((S)-pyrrolidin-3-yl)pyrido[3,4-d]pyridazine-1,7-diamine]
Ki [1]: 0.246 nM
IC50 (pERK in MKN1 cells): 66.3 nM

Cc1nnc(N[C@H](C)c2cccc(C(F)(F)F)c2F)c2cc(N(C)[C@H]3CCNC3)ncc12 [Example 1-65, N^1-((R)-1-(2-fluoro-3-(trifluoromethyl)phenyl)ethyl)-N^7,4-dimethyl-N^7-((S)-pyrrolidin-3-yl)pyrido[3,4-d]pyridazine-1,7-diamine]
Ki [1]: 0.505 nM
IC50 (pERK in MKN1 cells): 49.7 nM

Cc1c([C@@H](C)Nc2nnc(C)c3cnc(N4CC5(CC(N(C)C)C5)C4)cc23)cccc1C(F)(F)F [Example 1-66, (R)-7-(6-(dimethylamino)-2-azaspiro[3.3]heptan-2-yl)-4-methyl-N-(1-(2-methyl-3-(trifluoromethyl)phenyl)ethyl)pyrido[3,4-d]pyridazin-1-amine]
Ki [1]: 0.106 nM
IC50 (pERK in MKN1 cells): 32.4 nM

Cc1c(C#N)cccc1[C@@H](C)Nc1nnc(C)c2cnc(N3CCN(C)C(C)(C)C3)cc12 [Example 1-69, (R)-2-methyl-3-(1-((4-methyl-7-(3,3,4-trimethylpiperazin-1-yl)pyrido[3,4-d]pyridazin-1-yl)amino)ethyl)benzonitrile]
Ki [1]: 0.849 nM
IC50 (pERK in MKN1 cells): 39 nM

Cc1c(C#N)cccc1[C@@H](C)Nc1nnc(C)c2cnc(N3CCN(C(C)C)CC3)cc12 [Example 1-70, (R)-3-(1-((7-(4-isopropylpiperazin-1-yl)-4-methylpyrido[3,4-d]pyridazin-1-yl)amino)ethyl)-2-methylbenzonitrile]
Ki [1]: 0.927 nM
IC50 (pERK in MKN1 cells): 44.2 nM

Cc1c(C#N)cccc1[C@@H](C)Nc1nnc(C)c2cnc(N(C)[C@H]3CCOC3)cc12 [Example 1-71, 2-methyl-3-((R)-1-((4-methyl-7-(methyl((S)-tetrahydrofuran-3-yl)amino)pyrido[3,4-d]pyridazin-1-yl)amino)ethyl)benzonitrile]
Ki [1]: 4.69 nM
IC50 (pERK in MKN1 cells): 47.3 nM

Cc1nnc(N[C@H](C)c2cccc(C(F)(F)F)c2F)c2cc(N(C)[C@H]3CCOC3)ncc12 [Example 1-72, N^1-((R)-1-(2-fluoro-3-(trifluoromethyl)phenyl)ethyl)-N^7,4-dimethyl-N^7-((S)-tetrahydrofuran-3-yl)pyrido[3,4-d]pyridazine-1,7-diamine]
Ki [1]: 1.74 nM
IC50 (pERK in MKN1 cells): 118 nM

Cc1nnc(N[C@H](C)c2cccc(C(F)(F)F)c2F)c2cc(N(C)[C@@H]3CCOC3)ncc12 [Example 1-73, N^1-((R)-1-(2-fluoro-3-(trifluoromethyl)phenyl)ethyl)-N^7,4-dimethyl-N^7-((R)-tetrahydrofuran-3-yl)pyrido[3,4-d]pyridazine-1,7-diamine]
Ki [1]: 1.16 nM
IC50 (pERK in MKN1 cells): 54.8 nM

Cc1c(C#N)cccc1[C@@H](C)Nc1nnc(C)c2cnc(N(C)[C@@H]3CCOC3)cc12 [Example 1-74, 2-methyl-3-((R)-1-((4-methyl-7-(methyl((R)-tetrahydrofuran-3-yl)amino)pyrido[3,4-d]pyridazin-1-yl)amino)ethyl)benzonitrile]
Ki [1]: 2.34 nM
IC50 (pERK in MKN1 cells): 39.9 nM

Cc1nnc(N[C@H](C)c2cccc(C(F)(F)F)c2F)c2cc(N(C)[C@@H]3CCN(C(C)C)C3)ncc12 [Example 1-76, N^1-((R)-1-(2-fluoro-3-(trifluoromethyl)phenyl)ethyl)-N^7-((R)-1-isopropylpyrrolidin-3-yl)-N^7,4-dimethylpyrido[3,4-d]pyridazine-1,7-diamine]
Ki [1]: 0.367 nM
IC50 (pERK in MKN1 cells): 119 nM

Cc1nnc(N[C@H](C)c2cccc(C(F)(F)F)c2F)c2cc(N(C)[C@H]3CCN(C(C)C)C3)ncc12 [Example 1-77, N^1-((R)-1-(2-fluoro-3-(trifluoromethyl)phenyl)ethyl)-N^7-((S)-1-isopropylpyrrolidin-3-yl)-N^7,4-dimethylpyrido[3,4-d]pyridazine-1,7-diamine]
Ki [1]: 0.647 nM
IC50 (pERK in MKN1 cells): 121 nM

Cc1c(C#N)cccc1[C@@H](C)Nc1nnc(C)c2cnc(N(C)[C@H]3CCCN(C)C3)cc12 [Example 1-81, 2-methyl-3-((R)-1-((4-methyl-7-(methyl((S)-1-methylpiperidin-3-yl)amino)pyrido[3,4-d]pyridazin-1-yl)amino)ethyl)benzonitrile]
Ki [1]: 0.865 nM
IC50 (pERK in MKN1 cells): 62.4 nM

Cc1c(C#N)cccc1[C@@H](C)Nc1nnc(C)c2cnc(N(C)[C@@H]3CCCN(C)C3)cc12 [Example 1-82, 2-methyl-3-((R)-1-((4-methyl-7-(methyl((R)-1-methylpiperidin-3-yl)amino)pyrido[3,4-d]pyridazin-1-yl)amino)ethyl)benzonitrile]
Ki [1]: 1.16 nM
IC50 (pERK in MKN1 cells): 85.2 nM

Cc1nnc(N[C@H](C)c2cccc(C(F)(F)F)c2F)c2cc(N(C)C3CCN(C)CC3)ncc12 [Example 1-83, (R)-N^1-(1-(2-fluoro-3-(trifluoromethyl)phenyl)ethyl)-N^7,4-dimethyl-N^7-(1-methylpiperidin-4-yl)pyrido[3,4-d]pyridazine-1,7-diamine]
Ki [1]: 0.788 nM
IC50 (pERK in MKN1 cells): 82.8 nM

Cc1c(C#N)cccc1[C@@H](C)Nc1nnc(C)c2cnc(N3CCS(=N)(=O)CC3)cc12 [Example 1-84, (R)-3-(1-((7-(1-imino-1-oxido-thiomorpholino)-4-methylpyrido[3,4-d]pyridazin-1-yl)amino)ethyl)-2-methylbenzonitrile]
Ki [1]: 2.34 nM
IC50 (pERK in MKN1 cells): 2730 nM

Cc1nnc(N[C@H](C)c2cccc(C(F)(F)F)c2F)c2cc(N(C)[C@H]3CCCN(C)C3)ncc12 [Example 1-85, N^1-((R)-1-(2-fluoro-3-(trifluoromethyl)phenyl)ethyl)-N^7,4-dimethyl-N^7-((S)-1-methylpiperidin-3-yl)pyrido[3,4-d]pyridazine-1,7-diamine]
Ki [1]: 0.662 nM
IC50 (pERK in MKN1 cells): 185 nM

Cc1nnc(N[C@H](C)c2cccc(C(F)(F)F)c2F)c2cc(N3CC[C@@H](N(C)C)C3)ncc12 [Example 1-86, 7-((R)-3-(dimethylamino)pyrrolidin-1-yl)-N-((R)-1-(2-fluoro-3-(trifluoromethyl)phenyl)ethyl)-4-methylpyrido[3,4-d]pyridazin-1-amine]
Ki [1]: 0.372 nM
IC50 (pERK in MKN1 cells): 50.8 nM

Cc1nnc(N[C@H](C)c2cccc(C(F)(F)F)c2F)c2cc(N3CC4(CNC4)C3)ncc12 [Example 1-87, (R)-N-(1-(2-fluoro-3-(trifluoromethyl)phenyl)ethyl)-4-methyl-7-(2,6-diazaspiro[3.3]heptan-2-yl)pyrido[3,4-d]pyridazin-1-amine]
Ki [1]: 0.524 nM
IC50 (pERK in MKN1 cells): 273 nM

CCN1CC[C@@H](N(C)c2cc3c(N[C@H](C)c4cccc(C#N)c4C)nnc(C)c3cn2)C1 [Example 1-88, 3-((R)-1-((7-(((R)-1-ethylpyrrolidin-3-yl)(methyl)amino)-4-methylpyrido[3,4-d]pyridazin-1-yl)amino)ethyl)-2-methylbenzonitrile]
Ki [1]: 1.37 nM
IC50 (pERK in MKN1 cells): 35.5 nM

CCN1CC[C@H](N(C)c2cc3c(N[C@H](C)c4cccc(C#N)c4C)nnc(C)c3cn2)C1 [Example 1-89, 3-((R)-1-((7-(((S)-1-ethylpyrrolidin-3-yl)(methyl)amino)-4-methylpyrido[3,4-d]pyridazin-1-yl)amino)ethyl)-2-methylbenzonitrile]
Ki [1]: 1.71 nM
IC50 (pERK in MKN1 cells): 32.6 nM
